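A five-concentration, 48-hour dose response in 96-well plates underlies each endpoint, interpolated linearly between surrounding concentrations. TGI: concentration producing complete growth inhibition.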

Among the test systems are A498 renal; ACHN renal; HCT-116 colon; IGROV1 ovarian; KM12 colon; MALME-3M melanoma; MDA-MB-435; MDA-N; NCI-H226 lung; NCI-H522 lung; NCI/ADR-RES ovarian; PC-3 prostate; RPMI-8226 leukemia; RXF 393 renal; SF-295 CNS; SK-MEL-5 melanoma; SNB-75 CNS; DU-145 prostate; NCI-H460 lung; BT-549 breast.
Common to all, as to test: NCI-60 cell line screen, 48 h

Turning to `COC(=O)CCc1ccc2c(c1)CC1(Cc3ccccc3C1)C2`, the TGI in the assay with A498 renal, with ACHN renal, in the assay on HCT-116 colon, in the assay with IGROV1 ovarian, in the assay on KM12 colon and with MALME-3M melanoma was > 100 µM throughout. Moreover, the TGI in the assay on MDA-MB-435, in the assay with MDA-N, in the assay on NCI-H226 lung, in the assay on NCI-H522 lung, in the assay on NCI/ADR-RES ovarian and in the assay with PC-3 prostate was > 100 µM throughout. In addition, the TGI in the assay with RPMI-8226 leukemia, in the assay on RXF 393 renal, with SF-295 CNS, in the assay with SK-MEL-5 melanoma and with SNB-75 CNS was > 100 µM each time.

Take `CC1=NN(c2cccc(Cl)c2)C(=N/c2nc3ccccc3s2)/C1=C\c1cccs1`: the TGI with A498 renal was 82.5 µM; with ACHN renal, > 100 µM; in the assay with DU-145 prostate it was > 100 µM; in the assay with HCT-116 colon it was > 100 µM; with IGROV1 ovarian, > 100 µM; in the assay on KM12 colon, > 100 µM. Also, the TGI is > 100 µM with MDA-MB-435; > 100 µM in the assay on MDA-N; > 100 µM in the assay with NCI-H226 lung; > 100 µM in the assay on NCI-H460 lung; 93.8 µM in the assay on NCI-H522 lung; 56.5 µM in the assay with NCI/ADR-RES ovarian. In addition, the TGI in the assay with PC-3 prostate is > 100 µM; with RPMI-8226 leukemia it was 32.5 µM; with RXF 393 renal, > 100 µM; in the assay on SF-295 CNS, > 100 µM; with SK-MEL-5 melanoma, > 100 µM; in the assay on SNB-75 CNS it was > 100 µM.

As to `C/C=C1\CNC1C(=O)O` (stereo not given), the TGI in the assay with A498 renal, in the assay with ACHN renal, in the assay with BT-549 breast, in the assay on HCT-116 colon, in the assay with IGROV1 ovarian and in the assay with MALME-3M melanoma was > 100 µM each time. For the same compound, the TGI in the assay on MDA-MB-435, in the assay with MDA-N, in the assay with NCI-H460 lung, in the assay with NCI/ADR-RES ovarian, in the assay on PC-3 prostate and with RPMI-8226 leukemia was > 100 µM in each case. The TGI with SF-295 CNS and with SK-MEL-5 melanoma was > 100 µM in each case.

`C[C@@H](CO)C1=CC(C#C[Si](C)(C)C)N(C(=O)Oc2ccccc2)c2ccccc21` (stereo not given in full): the TGI in the assay with ACHN renal is 42.1 µM; in the assay on DU-145 prostate, 48.1 µM; in the assay with HCT-116 colon it was 29 µM; in the assay on IGROV1 ovarian, 36.4 µM; in the assay on KM12 colon, 34.1 µM; in the assay on MDA-MB-435, 15.5 µM. The TGI amounted to 23.7 µM in the assay with MDA-N; 44 µM with NCI-H226 lung; 37.4 µM in the assay on NCI-H460 lung; 33.9 µM in the assay with NCI-H522 lung; 31.3 µM in the assay with NCI/ADR-RES ovarian; 64.1 µM in the assay on PC-3 prostate. Besides, the TGI in the assay on RPMI-8226 leukemia amounted to 90.4 µM; in the assay on RXF 393 renal it was 20 µM; in the assay with SF-295 CNS, 28.1 µM; in the assay on SK-MEL-5 melanoma, 30.5 µM; in the assay on SNB-75 CNS, 36.1 µM.

As to `C(=NCCCN1CCN(CCCN=Cc2cccc3ccccc23)CC1)c1cccc2ccccc12`, the TGI with ACHN renal was > 100 µM; in the assay on BT-549 breast, 90.8 µM; with HCT-116 colon it was > 100 µM; with IGROV1 ovarian, > 100 µM; in the assay with KM12 colon it was > 100 µM; in the assay with MALME-3M melanoma it was > 100 µM. Moreover, the TGI in the assay on MDA-MB-435 was 96.8 µM; with MDA-N it was > 100 µM; in the assay on NCI-H226 lung, > 100 µM; in the assay on NCI-H460 lung, > 100 µM; in the assay with NCI-H522 lung, > 100 µM; in the assay on NCI/ADR-RES ovarian, > 100 µM. The TGI with PC-3 prostate is > 100 µM; in the assay with RPMI-8226 leukemia it was > 100 µM; in the assay with RXF 393 renal, 78.2 µM; in the assay with SF-295 CNS, > 100 µM; in the assay with SNB-75 CNS, > 100 µM.

Take `NC(=NCCN1CCCCCCC1)NO`: the TGI in the assay with A498 renal was > 100 µM; in the assay with ACHN renal, 43.4 µM; in the assay with DU-145 prostate, > 100 µM; in the assay with HCT-116 colon, 26.7 µM; with IGROV1 ovarian it was 92.6 µM; with KM12 colon it was > 100 µM. Further, the TGI in the assay on MALME-3M melanoma, with MDA-MB-435, in the assay on MDA-N, with NCI-H226 lung, in the assay with NCI-H460 lung and with NCI-H522 lung was > 100 µM in each case. Further, the TGI in the assay with NCI/ADR-RES ovarian, in the assay with PC-3 prostate, in the assay with RPMI-8226 leukemia, in the assay with RXF 393 renal, in the assay on SF-295 CNS and in the assay with SK-MEL-5 melanoma was > 100 µM throughout. For the same compound, the TGI in the assay with SNB-75 CNS was > 100 µM.

On to `CC(C)[Si](OC1=C(C(=O)N(C)c2ccccc2Cl)CCCCC1)(C(C)C)C(C)C`, for which the TGI with A498 renal, in the assay on ACHN renal, with BT-549 breast, in the assay on DU-145 prostate, with HCT-116 colon and in the assay with IGROV1 ovarian was > 100 µM in each case. The TGI with KM12 colon, in the assay on MALME-3M melanoma, with MDA-MB-435, in the assay with MDA-N, in the assay with NCI-H226 lung and in the assay on NCI-H460 lung was > 100 µM each time. The TGI in the assay with NCI-H522 lung, with NCI/ADR-RES ovarian, with RPMI-8226 leukemia, in the assay on RXF 393 renal, with SF-295 CNS and in the assay on SK-MEL-5 melanoma was > 100 µM throughout. Also, the TGI with SNB-75 CNS was > 100 µM.

For `c1ccc2sc(C3(N4CCC5(CC4)OCCO5)CCCCC3)cc2c1`, the TGI in the assay with A498 renal, in the assay on ACHN renal, in the assay with BT-549 breast, in the assay with DU-145 prostate, in the assay on HCT-116 colon and in the assay on IGROV1 ovarian was > 100 µM throughout. The TGI with KM12 colon, in the assay with MALME-3M melanoma, in the assay with MDA-MB-435, with MDA-N, in the assay with NCI-H226 lung and in the assay on NCI-H460 lung was > 100 µM throughout. In addition, the TGI with NCI-H522 lung, in the assay on NCI/ADR-RES ovarian, in the assay on RPMI-8226 leukemia, with RXF 393 renal, in the assay on SF-295 CNS and in the assay on SK-MEL-5 melanoma was > 100 µM throughout. The TGI in the assay on SNB-75 CNS was > 100 µM.

The values are drawn from PubChem BioAssay (NCI).
